The text below walks through data of the NIST ThermoML archive (doi:10.1016/j.fluid.2014.06.021).

Molecules are shown by their SMILES. ± gives the expanded uncertainty stated by the source.

The series is described as follows: activity coefficient (dimensionless); of the first substance listed, at infinite dilution; xn = mol fraction of the nth substance listed. The following applies: 101.33 kPa, Liquid, Chromatography, x1 = 0.

`Cc1ccccc1C` [1,2-dimethylbenzene] + C[n+]1ccn(CCCCS(=O)(=O)O)c1.O=S(=O)([N-]S(=O)(=O)C(F)(F)F)C(F)(F)F: the activity coefficient was determined as 4.39 ± 0.3 (323.15 K), 4.64 ± 0.32 (333.15 K) and 4.8 ± 0.3 (343.15 K).
Taken in the same sequence, the figures for `Cc1ccccc1C` [1,2-dimethylbenzene] + C[n+]1ccn(CCCCS(=O)(=O)O)c1.O=S(=O)([O-])C(F)(F)F were 8.26 ± 0.56, 8.21 ± 0.56 and 7.97 ± 0.54.
In the case of `Cc1ccccc1C` [1,2-dimethylbenzene] + C[n+]1ccn(CCCCS(=O)(=O)O)c1.O=S(=O)([O-])O, the activity coefficient reads like this: (323.15 K) 43.8 ± 3; (333.15 K) 41.3 ± 2.8; (343.15 K) 40.8 ± 2.8.
On the same counts, the results for `Cc1cccc(C)c1` [1,3-dimethylbenzene] + C[n+]1ccn(CCCCS(=O)(=O)O)c1.O=S(=O)([N-]S(=O)(=O)C(F)(F)F)C(F)(F)F are 5.19 ± 0.35, 5.49 ± 0.37 and 5.57 ± 0.38.
Turning to `Cc1cccc(C)c1` [1,3-dimethylbenzene] + C[n+]1ccn(CCCCS(=O)(=O)O)c1.O=S(=O)([O-])C(F)(F)F, the activity coefficient by setting is: (323.15 K) 10.4 ± 0.71; (333.15 K) 10.1 ± 0.7; (343.15 K) 9.84 ± 0.67.
Taken in the same sequence, the figures for `Cc1cccc(C)c1` [1,3-dimethylbenzene] + C[n+]1ccn(CCCCS(=O)(=O)O)c1.O=S(=O)([O-])O were 62.8 ± 4.3, 55.4 ± 3.8 and 54.5 ± 3.7.
In the case of `Cc1ccc(C)cc1` [1,4-dimethylbenzene] + C[n+]1ccn(CCCCS(=O)(=O)O)c1.O=S(=O)([N-]S(=O)(=O)C(F)(F)F)C(F)(F)F, the activity coefficient runs as follows: (323.15 K) 5.11 ± 0.35; (333.15 K) 5.47 ± 0.37; (343.15 K) 5.55 ± 0.38.
Consider `Cc1ccc(C)cc1` [1,4-dimethylbenzene] + C[n+]1ccn(CCCCS(=O)(=O)O)c1.O=S(=O)([O-])C(F)(F)F, for which the activity coefficient (323.15 K) was 10.1 ± 0.69, the activity coefficient (333.15 K) worked out at 9.86 ± 0.67 and the activity coefficient (343.15 K) came to 9.52 ± 0.65.
As to `Cc1ccc(C)cc1` [1,4-dimethylbenzene] + C[n+]1ccn(CCCCS(=O)(=O)O)c1.O=S(=O)([O-])O, the activity coefficient (323.15 K) worked out at 56.6 ± 3.9, the activity coefficient (333.15 K) was determined as 54.4 ± 3.7 and the activity coefficient (343.15 K) was 50.6 ± 3.5.
As for `C#CCCCCC` [1-heptyne] + C[n+]1ccn(CCCCS(=O)(=O)O)c1.O=S(=O)([O-])C(F)(F)F, the activity coefficient was 25.9 ± 1.8 (323.15 K), 25.7 ± 1.8 (333.15 K) and 24.8 ± 1.7 (343.15 K).
Turning to `C#CCCCC` [1-hexyne] + C[n+]1ccn(CCCCS(=O)(=O)O)c1.O=S(=O)([O-])C(F)(F)F, the activity coefficient (323.15 K) was 15.5 ± 1.1, the activity coefficient (333.15 K) amounted to 14.4 ± 0.99 and the activity coefficient (343.15 K) was 13.5 ± 0.92.
`CCC[N+](=O)[O-]` [1-nitropropane] + C[n+]1ccn(CCCCS(=O)(=O)O)c1.O=S(=O)([N-]S(=O)(=O)C(F)(F)F)C(F)(F)F: the activity coefficient runs as follows: (323.15 K) 1.17 ± 0.07; (333.15 K) 1.17 ± 0.07; (343.15 K) 1.18 ± 0.08.
As to `CCC[N+](=O)[O-]` [1-nitropropane] + C[n+]1ccn(CCCCS(=O)(=O)O)c1.O=S(=O)([O-])C(F)(F)F, the activity coefficient was 1.84 ± 0.12 (323.15 K), 1.8 ± 0.12 (333.15 K) and 1.77 ± 0.12 (343.15 K).
Taken in the same sequence, the figures for `CCC[N+](=O)[O-]` [1-nitropropane] + C[n+]1ccn(CCCCS(=O)(=O)O)c1.O=S(=O)([O-])O were 7.05 ± 0.48, 6.92 ± 0.47 and 6.82 ± 0.46.
Consider `CC(C)CO` [2-methyl-1-propanol] + C[n+]1ccn(CCCCS(=O)(=O)O)c1.O=S(=O)([N-]S(=O)(=O)C(F)(F)F)C(F)(F)F, for which the activity coefficient runs as follows: (333.15 K) 0.22 ± 0.03; (343.15 K) 0.26 ± 0.03.
For the compound `CC#N` [acetonitrile] + C[n+]1ccn(CCCCS(=O)(=O)O)c1.O=S(=O)([N-]S(=O)(=O)C(F)(F)F)C(F)(F)F, the activity coefficient (323.15 K) was determined as 0.4 ± 0.1, the activity coefficient (333.15 K) turned out to be 0.42 ± 0.04 and the activity coefficient (343.15 K) amounted to 0.45 ± 0.04.
Take `CC#N` [acetonitrile] + C[n+]1ccn(CCCCS(=O)(=O)O)c1.O=S(=O)([O-])C(F)(F)F: the activity coefficient runs as follows: (323.15 K) 0.68 ± 0.05; (333.15 K) 0.67 ± 0.05; (343.15 K) 0.68 ± 0.05.
Regarding `CC#N` [acetonitrile] + C[n+]1ccn(CCCCS(=O)(=O)O)c1.O=S(=O)([O-])O, the activity coefficient by setting is: (323.15 K) 1.74 ± 0.12; (333.15 K) 1.73 ± 0.12; (343.15 K) 1.73 ± 0.12.
Turning to `c1ccccc1` [benzene] + C[n+]1ccn(CCCCS(=O)(=O)O)c1.O=S(=O)([N-]S(=O)(=O)C(F)(F)F)C(F)(F)F, the activity coefficient came out at 1.95 ± 0.13 (323.15 K), 2.07 ± 0.14 (333.15 K) and 2.15 ± 0.15 (343.15 K).
On to `c1ccccc1` [benzene] + C[n+]1ccn(CCCCS(=O)(=O)O)c1.O=S(=O)([O-])C(F)(F)F, for which the activity coefficient runs as follows: (323.15 K) 3.36 ± 0.23; (333.15 K) 3.29 ± 0.22; (343.15 K) 3.2 ± 0.2.
For the compound `c1ccccc1` [benzene] + C[n+]1ccn(CCCCS(=O)(=O)O)c1.O=S(=O)([O-])O, the activity coefficient by setting is: (323.15 K) 14.4 ± 0.98; (333.15 K) 12.5 ± 0.85; (343.15 K) 12.2 ± 0.83.
Regarding `CCCCO` [butan-1-ol] + C[n+]1ccn(CCCCS(=O)(=O)O)c1.O=S(=O)([N-]S(=O)(=O)C(F)(F)F)C(F)(F)F, the activity coefficient (333.15 K) was 0.19 ± 0.03 and the activity coefficient (343.15 K) was found to be 0.23 ± 0.03.
In the case of `CCC(C)=O` [butanone] + C[n+]1ccn(CCCCS(=O)(=O)O)c1.O=S(=O)([N-]S(=O)(=O)C(F)(F)F)C(F)(F)F, the activity coefficient is, setting by setting: (323.15 K) 0.24 ± 0.03; (333.15 K) 0.27 ± 0.03; (343.15 K) 0.3 ± 0.1.
Taken in the same sequence, the figures for `CCC(C)=O` [butanone] + C[n+]1ccn(CCCCS(=O)(=O)O)c1.O=S(=O)([O-])C(F)(F)F were 1.06 ± 0.07, 1 ± 0.06 and 0.96 ± 0.06.
Consider `CCC(C)=O` [butanone] + C[n+]1ccn(CCCCS(=O)(=O)O)c1.O=S(=O)([O-])O, for which the activity coefficient came out at 5.49 ± 0.37 (323.15 K), 5.17 ± 0.35 (333.15 K) and 4.47 ± 0.3 (343.15 K).
Regarding `C1CCCCCC1` [cycloheptane] + C[n+]1ccn(CCCCS(=O)(=O)O)c1.O=S(=O)([N-]S(=O)(=O)C(F)(F)F)C(F)(F)F, the activity coefficient by setting is: (323.15 K) 92.5 ± 6.4; (333.15 K) 144 ± 9.9; (343.15 K) 180 ± 12.
On the same counts, the results for `C1CCCCCC1` [cycloheptane] + C[n+]1ccn(CCCCS(=O)(=O)O)c1.O=S(=O)([O-])C(F)(F)F are 225 ± 15, 270 ± 19 and 287 ± 20.
Take `CCCCCCCCCC` [decane] + C[n+]1ccn(CCCCS(=O)(=O)O)c1.O=S(=O)([N-]S(=O)(=O)C(F)(F)F)C(F)(F)F: the activity coefficient stood at 371 ± 26 (323.15 K), 336 ± 23 (333.15 K) and 281 ± 19 (343.15 K).
For the compound `ClCCl` [dichloromethane] + C[n+]1ccn(CCCCS(=O)(=O)O)c1.O=S(=O)([N-]S(=O)(=O)C(F)(F)F)C(F)(F)F, the activity coefficient was determined as 1.08 ± 0.07 (323.15 K), 1.18 ± 0.08 (333.15 K) and 1.28 ± 0.08 (343.15 K).
`ClCCl` [dichloromethane] + C[n+]1ccn(CCCCS(=O)(=O)O)c1.O=S(=O)([O-])C(F)(F)F: the activity coefficient (323.15 K) turned out to be 1.3 ± 0.08, the activity coefficient (333.15 K) turned out to be 1.46 ± 0.1 and the activity coefficient (343.15 K) is 1.61 ± 0.11.
On the same counts, the results for `ClCCl` [dichloromethane] + C[n+]1ccn(CCCCS(=O)(=O)O)c1.O=S(=O)([O-])O are 3.5 ± 0.24, 3.48 ± 0.24 and 3.37 ± 0.23.
Regarding `CCOCC` [diethyl ether] + C[n+]1ccn(CCCCS(=O)(=O)O)c1.O=S(=O)([N-]S(=O)(=O)C(F)(F)F)C(F)(F)F, the activity coefficient (323.15 K) stood at 0.4 ± 0.1, the activity coefficient (333.15 K) was found to be 0.53 ± 0.04 and the activity coefficient (343.15 K) came to 0.65 ± 0.04.
In the case of `CCOCC` [diethyl ether] + C[n+]1ccn(CCCCS(=O)(=O)O)c1.O=S(=O)([O-])C(F)(F)F, the activity coefficient is, setting by setting: (323.15 K) 4.51 ± 0.31; (333.15 K) 4.36 ± 0.3; (343.15 K) 4.21 ± 0.29.
Taken in the same sequence, the figures for `CC(C)OC(C)C` [diisopropyl ether] + C[n+]1ccn(CCCCS(=O)(=O)O)c1.O=S(=O)([O-])C(F)(F)F were 11.7 ± 0.8, 13.3 ± 0.91 and 14.9 ± 1.
Consider `CCCCCCCCCCCC` [dodecane] + C[n+]1ccn(CCCCS(=O)(=O)O)c1.O=S(=O)([N-]S(=O)(=O)C(F)(F)F)C(F)(F)F, for which the activity coefficient (323.15 K) came out at 684 ± 47, the activity coefficient (333.15 K) was found to be 588 ± 40 and the activity coefficient (343.15 K) came out at 557 ± 38.
With `CCCCCCCCCCCC` [dodecane] + C[n+]1ccn(CCCCS(=O)(=O)O)c1.O=S(=O)([O-])C(F)(F)F, the activity coefficient is, setting by setting: (323.15 K) 1490 ± 100; (333.15 K) 1020 ± 70; (343.15 K) 997 ± 69.
On the same counts, the results for `CCCCCCCCCCCC` [dodecane] + C[n+]1ccn(CCCCS(=O)(=O)O)c1.O=S(=O)([O-])O are 1310 ± 90, 1200 ± 82 and 1140 ± 79.
As to `CCO` [ethanol] + C[n+]1ccn(CCCCS(=O)(=O)O)c1.O=S(=O)([N-]S(=O)(=O)C(F)(F)F)C(F)(F)F, the activity coefficient reads like this: (333.15 K) 0.08 ± 0.03; (343.15 K) 0.1.
As for `CCc1ccccc1` [ethylbenzene] + C[n+]1ccn(CCCCS(=O)(=O)O)c1.O=S(=O)([N-]S(=O)(=O)C(F)(F)F)C(F)(F)F, the activity coefficient amounted to 5.37 ± 0.37 (323.15 K), 5.79 ± 0.39 (333.15 K) and 5.8 ± 0.4 (343.15 K).
